This note sets out measurements from ChEMBL document CHEMBL3046434, “cAMP-dependent phosphodiesterase inhibition and SAR studies on novel 6,8-disubstituted 2-phenyl-3-(substituted benzothiazole-2-yl)-4[3H]-quinazolinone” (Med Chem Res, 2009).

The target in this test is T1, PDE7B protein (Bos taurus) (UniProt A6QP37).
T1 sequence (whole entry): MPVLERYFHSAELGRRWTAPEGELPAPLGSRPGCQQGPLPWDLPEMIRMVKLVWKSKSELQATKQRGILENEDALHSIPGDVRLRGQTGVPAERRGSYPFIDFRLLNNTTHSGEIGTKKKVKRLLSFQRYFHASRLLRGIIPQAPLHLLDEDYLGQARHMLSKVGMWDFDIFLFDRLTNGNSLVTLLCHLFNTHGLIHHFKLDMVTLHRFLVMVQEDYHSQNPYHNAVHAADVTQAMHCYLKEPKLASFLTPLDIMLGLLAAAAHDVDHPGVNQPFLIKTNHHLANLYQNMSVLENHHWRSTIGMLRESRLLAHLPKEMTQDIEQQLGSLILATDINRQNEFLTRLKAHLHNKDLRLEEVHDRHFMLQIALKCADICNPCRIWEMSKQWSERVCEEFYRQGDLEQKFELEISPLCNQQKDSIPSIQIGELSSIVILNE
Briefly: Inhibition of Bos taurus (bovine) heart cAMP-dependent phosphodiesterase assessed as inhibition of cyclic AMP to 5' AMP after 20 min by spectrophotometry relative to theophylline.
On to `CCOc1ccc2nc(-n3c(-c4ccccc4)nc4c(Br)cc(Br)cc4c3=O)sc2c1`, for which the Ratio was 1.19.

Take `COc1cccc2sc(-n3c(-c4ccccc4)nc4ccccc4c3=O)nc12`: the Ratio is 1.33.

As for `O=c1c2cc(Br)cc(Br)c2nc(-c2ccccc2)n1-c1nc2ccc(Br)cc2s1`, the Ratio stood at 0.927.

Turning to `COc1ccc2sc(-n3c(-c4ccccc4)nc4c(Br)cc(Br)cc4c3=O)nc2c1`, the Ratio was determined as 1.18.

For `O=c1c2cc(Br)cc(Br)c2nc(-c2ccccc2)n1-c1nc2cc(Cl)ccc2s1`, the Ratio came to 0.844.

As for `O=c1c2ccccc2nc(-c2ccccc2)n1-c1nc2cc(Cl)ccc2s1`, the Ratio amounted to 1.21.

Turning to `Cn1c(=O)c2[nH]cnc2n(C)c1=O`, the Ratio turned out to be 1.

In the case of `CCOc1ccc2sc(-n3c(-c4ccccc4)nc4ccccc4c3=O)nc2c1`, the Ratio was 1.41.

As to `COc1ccc2sc(-n3c(-c4ccccc4)nc4ccccc4c3=O)nc2c1`, the Ratio came out at 1.34.

Turning to `COc1ccc2nc(-n3c(-c4ccccc4)nc4c(Br)cc(Br)cc4c3=O)sc2c1`, the Ratio was found to be 1.2.

For the compound `Cc1ccc2sc(-n3c(-c4ccccc4)nc4ccccc4c3=O)nc2c1`, the Ratio was determined as 1.29.

As to `O=c1c2ccccc2nc(-c2ccccc2)n1-c1nc2ccc(Br)cc2s1`, the Ratio amounted to 1.28.

Regarding `O=c1c2ccccc2nc(-c2ccccc2)n1-c1nc2ccccc2s1`, the Ratio was determined as 1.22.

As for `O=c1c2cc(Br)cc(Br)c2nc(-c2ccccc2)n1-c1nc2ccccc2s1`, the Ratio is 1.08.

Turning to `CCOc1ccc2nc(-n3c(-c4ccccc4)nc4ccccc4c3=O)sc2c1`, the Ratio turned out to be 1.38.

Regarding `Cc1cc(C)c2nc(-n3c(-c4ccccc4)nc4ccccc4c3=O)sc2c1`, the Ratio is 1.35.

On to `Cc1cccc2sc(-n3c(-c4ccccc4)nc4ccccc4c3=O)nc12`, for which the Ratio came out at 1.27.

For the compound `O=c1c2ccccc2nc(-c2ccccc2)n1-c1nc2ccc([N+](=O)[O-])cc2s1`, the Ratio worked out at 1.47.

Turning to `Cc1ccc2sc(-n3c(-c4ccccc4)nc4c(Br)cc(Br)cc4c3=O)nc2c1`, the Ratio stood at 1.13.

`Cc1cc(C)c2nc(-n3c(-c4ccccc4)nc4c(Br)cc(Br)cc4c3=O)sc2c1`: the Ratio was 1.17.

In the case of `CCOc1ccc2sc(-n3c(-c4ccccc4)nc4c(Br)cc(Br)cc4c3=O)nc2c1`, the Ratio turned out to be 1.22.

Consider `O=c1c2cc(Br)cc(Br)c2nc(-c2ccccc2)n1-c1nc2ccc([N+](=O)[O-])cc2s1`, for which the Ratio was 0.869.

As to `COc1ccc2nc(-n3c(-c4ccccc4)nc4ccccc4c3=O)sc2c1`, the Ratio came out at 1.35.

For the compound `COc1cccc2sc(-n3c(-c4ccccc4)nc4c(Br)cc(Br)cc4c3=O)nc12`, the Ratio was 1.18.

In the case of `Cc1cccc2sc(-n3c(-c4ccccc4)nc4c(Br)cc(Br)cc4c3=O)nc12`, the Ratio worked out at 1.14.

For the compound `CCOc1cccc2sc(-n3c(-c4ccccc4)nc4c(Br)cc(Br)cc4c3=O)nc12`, the Ratio amounted to 1.21.

Regarding `CCOc1cccc2sc(-n3c(-c4ccccc4)nc4ccccc4c3=O)nc12`, the Ratio worked out at 1.38.
